{"source": "patent US8399518B2", "about": "“Administration of 3,5-diiodothyropropionic acid for stimulating weight loss, and/or lowering triglyceride levels, and/or treatment of metabolic syndrome” (University of Arizona Office of Technology Transfer, priority 2007, dated 2013)", "assay": "Human clinical study with DITPA: weight loss in patients with a history of congestive heart failure", "format": "in vivo", "details": "maximum 26 weeks; for patients who experienced a weight loss of 2% or more: DITPA or placebo (2:1) orally, 90 mg/day increased to 180 or 360 mg/day", "description": "Fifty-four patients with a history of congestive heart failure were administered DITPA or placebo in a 2:1 randomized and double-blinded manner for a maximum of 26 weeks. […] The patients in the study were administered DITPA orally twice per and the dose began at 90 mg/day and increased to 180 mg/day after two weeks. In half of the DITPA patients, the dose was increased further to 270 mg/day after two weeks, and then to 360 mg/day. Patients were randomized 1:1:1 to DITPA 180 mg/day, DITPA 360 mg/day, or placebo.", "data": [{"smiles": "O=C(O)CCc1cc(I)c(Oc2ccc(O)cc2)c(I)c1", "note": "[DITPA, 3,5-diiodothyropropionic acid]", "values": [{"measurement": "decrease in weight, overweight patients versus patients of normal body weight", "setting": "oral DITPA 180 or 360 mg/day", "value": "greater decrease in weight in overweight patients than those of normal body weight"}, {"measurement": "patients who experienced a weight loss of 2% or more", "setting": "patients with body mass index greater than 25", "value": 71.05, "unit": "%"}, {"measurement": "patients who experienced a weight loss of 2% or more", "setting": "patients with body mass index less than or equal to 25", "value": 37.5, "unit": "%"}]}]}
